Laboratory results reported in US9018207B2, “Method of treatment or prophylaxis” (Spinifex Pharmaceuticals Pty Ltd, priority 2004, dated 2015).
Several values for one entry are separate records, joined by “and”; a condition that tells them apart may be missing. Equal entries are not always repeated. Entries after “also recorded” stand apart in the source; their conditions may differ.

Assays:
Type in all cases: in vivo, Sprague-Dawley (SD) rats
[1] = tested on: rats with a chronic constriction injury (CCI) of the sciatic nerve; assay: Antinociception (von Frey paw withdrawal thresholds) in the contralateral hindpaw of CCI-rats
Procedure: (§1) Adult male Sprague-Dawley (SD) rats were anaesthetized with Zoletil 100® (0.09 ml/200 g) and Xylazil-20™ (0.1 mL/200 g) administered by intraperitoneal (i.p.) injection, and a chronic constriction injury (CCI) of the sciatic nerve was produced according to the method of Bennett and Xie (1988). Briefly, the left common sciatic nerve was exposed at mid-thigh level by blunt dissection through the biceps femoris. Proximal to the trifurcation, 10 mm of nerve was freed of adhering tissue and four loose ligatures (3.0 silk) were tied around the sciatic nerve 1 mm apart). The incision was closed in layers. After surgery, rats received benzylpenicillin (60 mg s.c.) to prevent infection and were kept warm during surgical recovery. Rats were housed singly for 10-14 days prior to AT2 receptor antagonist or vehicle (normal saline) administration. After CCI-surgery, rats were inspected daily with regard to posture of the affected hindpaw, exploring behavior, body weight and water intake, and any signs of autotomy. Whilst under light anaesthesia with CO2/O2 (50:50%), CCI-rats or STZ-diabetic rats received a single bolus injection (200 μL) of one AT2 receptor antagonist (PD123,319 or L-159,686) by the intravenous (i.v.) or the intraperitoneal (i.p.) route, using a 250 μL Hamilton syringe. The test compounds were administered to CCI-rats at 14 days after CCI-surgery and to STZ-diabetic rats at approximately 8-wks after the induction of diabetes with STZ. Relief of tactile (mechanical) allodynia, the defining symptom of neuropathic pain, by each of the test agents, PD123,319 or L-159,686, was quantified using calibrated von Frey filaments as described below. Tactile allodynia was quantified using calibrated von Frey filaments. Rats were placed in wire mesh testing cages (20 cm×20 cm×20 cm) and allowed to acclimatise for approximately […] Von Frey filaments were used to determine the lowest mechanical threshold required for a brisk paw withdrawal reflex. Briefly, the filament that produced the lowest force was applied to the plantar surface of the hindpaw until the filament buckled slightly. Absence of a response after 5 s prompted use of the next filament in an ascending sequence. Filaments used produced a buckling weight of 2, 4, 6, 8, 10, 12, 14, 16, 18 and 20 g and these were calibrated prior to each testing session. […] For CCI-rats, baseline von Frey paw withdrawal thresholds (PWTs) were quantified prior to CCI-surgery, and at 14 days post-surgery immediately prior to drug administration. For STZ-diabetic rats, baseline von Frey PWT values were determined prior to the induction of diabetes with STZ and at 1-2 weekly intervals thereafter for 8 weeks to document the temporal development of tactile allodynia. For all rats, baseline PWTs were the mean of three readings taken, 5 min apart before drug administration and were determined separately for each hindpaw. After administration of each test compound, von Frey PWTs were determined at the following post-dosing times: 0.08, 0.25, 0.5, 0.75, 1, 1.25, 1.5, 2 and 3 h. Paw withdrawal thresholds (PWTs; g) were plotted against time to construct response versus time curves for each of the two test compounds (PD123,319 and L-159,686) for each dose and dosing route. Whilst adult male SD rats were anaesthetized with 3% isoflurane: 97% oxygen, four loose ligatures were tied around one sciatic nerve to produce a unilateral chronic constriction injury (CCI) according to the method of Bennett and Xie (1988, Pain 33: 87-107). […]

[2] = tested on: rats with a chronic constriction injury (CCI) of the sciatic nerve; assay: Relief of tactile allodynia (von Frey paw withdrawal thresholds) in the ipsilateral (injured) hindpaw of CCI-rats; conditions: for doses required to produce significant relief of tactile allodynia in CCI-rats compared with STZ-diabetic rats: CCI-rats vs STZ-diabetic rats
Procedure: as §1, with “87-107). Briefly, the left common sciatic nerve was exposed at mid-thigh level by blunt dissection through the biceps femoris. Proximal to the trifurcation, 10 mm of nerve was freed of adhering tissue and four loose ligatures (3.0 silk) were tied around the sciatic nerve 1 mm apart). The incision was closed in layers. After surgery, rats received benzylpenicillin (60 mg s.c.) to prevent infection and were kept warm during surgical recovery.” for “87-107).”

[3] = tested on: STZ-diabetic rats; assay: Relief of tactile allodynia (von Frey paw withdrawal thresholds) in the hindpaws of STZ-diabetic rats (model of PDN); conditions: for relief of tactile allodynia (summary in discussion): STZ-diabetic rat model of PDN; for relief of tactile allodynia (summary in discussion) / onset of anti-allodynia (summary in discussion): single i.p. bolus doses; for reversal of tactile allodynia in the hindpaws: i.p., higher doses tested
Procedure: Adult male SD rats were anaesthetized in a manner similar to that described above, to facilitate insertion of a polyethylene cannula (previously filled with 0.1 ml of sterile saline) into the right common jugular vein. Jugular vein cannulae were tested for correct placement by the withdrawal of a small amount of blood. Diabetes was induced following an acute i.v. injection of streptozotocin (STZ) (80 mg/kg) in 0.1 M citrate buffer (pH 4.5) into the jugular vein. Diabetes was confirmed by monitoring the water intake and blood glucose concentration in individual rats. Blood glucose was monitored using either (Glucostix™) or a Precision QID™ test kit.
Consistent with previous studies in the literature (Calcutt et al., 1996, Pain. 68(2-3):293-9), rats that drank more than 100 mL of water per day by 10 days post-STZ injection, were classified as diabetic, and only rats with blood glucose concentrations exceeding 15 mM were included in the subsequent experiments. By comparison, the water intake of control non-diabetic rats was approximately 20 mL per day and blood glucose concentrations were in the range 5-6 mM, consistent with the literature (Calcutt et al., 1996, supra).
Whilst under light anaesthesia with CO2/O2 (50:50%), CCI-rats or STZ-diabetic rats received a single bolus injection (200 μL) of one AT2 receptor antagonist (PD123,319 or L-159,686) by the intravenous (i.v.) or the intraperitoneal (i.p.) route, using a 250 μL Hamilton syringe. The test compounds were administered to CCI-rats at 14 days after CCI-surgery and to STZ-diabetic rats at approximately 8-wks after the induction of diabetes with STZ. Relief of tactile (mechanical) allodynia, the defining symptom of neuropathic pain, by each of the test agents, PD123,319 or L-159,686, was quantified using calibrated von Frey filaments as described below.
Tactile allodynia was quantified using calibrated von Frey filaments. Rats were placed in wire mesh testing cages (20 cm×20 cm×20 cm) and allowed to acclimatise for approximately […] Von Frey filaments were used to determine the lowest mechanical threshold required for a brisk paw withdrawal reflex. Briefly, the filament that produced the lowest force was applied to the plantar surface of the hindpaw until the filament buckled slightly. Absence of a response after 5 s prompted use of the next filament in an ascending sequence. Filaments used produced a buckling weight of 2, 4, 6, 8, 10, 12, 14, 16, 18 and 20 g and these were calibrated prior to each testing session.
For CCI-rats, baseline von Frey paw withdrawal thresholds (PWTs) were quantified prior to CCI-surgery, and at 14 days post-surgery immediately prior to drug administration. For STZ-diabetic rats, baseline von Frey PWT values were determined prior to the induction of diabetes with STZ and at 1-2 weekly intervals thereafter for 8 weeks to document the temporal development of tactile allodynia. For all rats, baseline PWTs were the mean of three readings taken, 5 min apart before drug administration and were determined separately for each hindpaw. After administration of each test compound, von Frey PWTs were determined at the following post-dosing times: 0.08, 0.25, 0.5, 0.75, 1, 1.25, 1.5, 2 and 3 h.
Paw withdrawal thresholds (PWTs; g) were plotted against time to construct response versus time curves for each of the two test compounds (PD123,319 and L-159,686) for each dose and dosing route.
Whilst adult male SD rats were anaesthetized with 3% isoflurane: 97% oxygen, a short polyethylene cannula (0.4 mm ID, 0.8 mm OD) was inserted into the jugular vein to facilitate the intravenous (i.v) administration of a single dose of STZ (75 mg/kg). After removal of the i.v. cannula, the jugular vein was tied off, the wound was closed and topical bupivacaine was applied. Rats received benzylpenicillin (60 mg s.c.) to prevent infection and were kept warm during surgical recovery. […]

[4] = tested on: rats with a chronic constriction injury (CCI) of the sciatic nerve; assay: Relief of tactile allodynia (von Frey paw withdrawal thresholds) in the ipsilateral (injured) hindpaw of CCI-rats; conditions: oral bolus 1 mg/kg vs same dose i.p.
[5] = CCI-rats, sodium salt, i.p. bolus 0.003 to 10 mg/kg
[6] = STZ-diabetic rats, sodium salt, i.p. bolus 0.0003 to 3 mg/kg
[7] = CCI-rats, i.p. bolus 0.03 to 3 mg/kg
[8] = STZ-diabetic rats, i.p. bolus 0.001 to 3.0 μg/kg

CCc1nc2ccc(N(Cc3ccccc3)C(=O)c3cccs3)cc2c(=O)n1Cc1ccc(-c2ccccc2-c2nn[nH]n2)cc1.[Na] [L-161,638 (sodium salt), thiophene-2-carboxylic Acid benzyl-{2-ethyl-4-oxo-3-[2′-(2H-tetrazol-5yl)-biphenyl-4-ylmethyl]-3,4-dihydro-quinazolin-6-yl}-amide Sodium Salt]
antinociception in the contralateral hindpaw ([1]; sodium salt, i.p. doses up to 10 mg/kg): insignificant antinociception | doses required to produce significant relief of tactile allodynia in CCI-rats compared with STZ-diabetic rats [2]: considerably larger doses | anti-allodynia (relief of tactile allodynia) in the ipsilateral hindpaw [2, 5]: dose-dependent relief of tactile allodynia | durations of action [2, 5]: 1.5 to 3 h | onset of anti-allodynia in the ipsilateral hindpaw [2, 5]: rapid onset | time of peak responses post-dosing [2, 5]: 0.5 to 0.75 h | anti-allodynia (relief of tactile allodynia) in the ipsilateral hindpaw ([2]; CCI-rats, sodium salt, i.p. bolus 0.003 to 10 mg/kg, listed as L-161,638, Sodium Salt): dose-dependent anti-allodynia | relief of tactile allodynia (summary in discussion) [3]: potent relief of tactile allodynia | reversal of tactile allodynia in the hindpaws ([3]; STZ-diabetic rats): fully reversed | onset of anti-allodynia (summary in discussion) ([3]; STZ-diabetic rats): relatively rapid onset | duration of action ([3]; STZ-diabetic rats, sodium salt, i.p. 3 mg/kg dose): > 3 h | onset of relief of tactile allodynia [3, 6]: rapid onset | relief of tactile allodynia [3, 6]: dose-dependent relief of tactile allodynia | time of peak effects post-dosing [3, 6]: 0.25 to 0.75 h | relief of tactile allodynia ([3]; STZ-diabetic rats, sodium salt, i.p. bolus 0.0003 to 3 mg/kg, listed as L-161,638, Sodium Salt): relief of tactile allodynia | duration of action ([3]; STZ-diabetic rats, sodium salt, i.p. doses in the range 0.0003-0.03 μg/kg): 3 h

COc1ccc(Cn2cnc3c2C[C@@H](C(=O)O)N(C(=O)C(c2ccccc2)c2ccccc2)C3)cc1C [PD-121,981]
antinociception in the contralateral hindpaw ([1]; i.p. doses up to 3 mg/kg): insignificant antinociception | doses required to produce significant relief of tactile allodynia in CCI-rats compared with STZ-diabetic rats [2]: considerably larger doses | duration of action ([2]; CCI-rats, 1 mg/kg, irrespective of dosing route (oral or i.p.)): 3 h | anti-allodynia (relief of tactile allodynia) in the ipsilateral hindpaw [2, 7]: dose-dependent anti-allodynia; also recorded: dose-dependent relief of tactile allodynia | durations of action [2, 7]: 2 to 3 h | onset of anti-allodynia in the ipsilateral hindpaw [2, 7]: rapid onset | time of peak anti-allodynia in the ipsilateral hindpaw post-dosing [2, 7]: 0.5 to 0.75 h and 0.5 to 1.0 h | relief of tactile allodynia (summary in discussion) [3]: potent relief of tactile allodynia | duration of action ([3]; STZ-diabetic rats, 0.1 μg/kg, irrespective of dosing route (oral or i.p.)): exceeded 3 h | onset of action [3, 8]: rapid onset of action | relief of tactile allodynia [3, 8]: dose-dependent relief of tactile allodynia | time of peak anti-allodynia post-dosing [3, 8]: 0.5 to 1.0 h | duration of action ([3]; STZ-diabetic rats, i.p. doses in the range 0.03-3.0 μg/kg): > 3 h | reversal of tactile allodynia in the hindpaws ([3]; STZ-diabetic rats): fully reversed | extent and duration of the anti-allodynic response, oral compared with i.p. route ([3]; STZ-diabetic rats, oral bolus 0.1 μg/kg vs same dose i.p.): similar | onset of anti-allodynia (summary in discussion) ([3]; STZ-diabetic rats): relatively rapid onset | extent and duration of the anti-allodynic response, oral compared with i.p. route [4]: similar

Cc1cc(Cn2cnc3c2C[C@@H](C(=O)O)N(C(=O)C(c2ccccc2)c2ccccc2)C3)ccc1N(C)C [PD-123,319]
antinociception in the contralateral hindpaw ([1]; single bolus i.p. 1-10 mg/kg, n=3-4): antinociception in the contralateral hindpaw | antinociception in the contralateral hindpaw ([1]; single bolus i.v. 0.1-0.3 mg/kg, n=2): antinociception in the contralateral hindpaw | relief of tactile allodynia in the ipsilateral (injured) hindpaw ([2]; CCI-rats, single bolus i.p. 1-10 mg/kg, n=3-4): dose-dependent (A) relief of tactile allodynia | relief of tactile allodynia in the ipsilateral (injured) hindpaw ([2]; CCI-rats, single bolus i.v. 0.1-0.3 mg/kg, n=2): dose-dependent (A) relief of tactile allodynia | relief of tactile allodynia ([3]; STZ-diabetic rats (8-wks after STZ), single bolus i.p. 0.3-3.0 mg/kg, n=4): dose-dependent relief of tactile allodynia
